Measured values from US5977373A, “Thiadiazolyl and oxadiazolyl phenyl oxazolidinone antibacterial agents” (Pharmacia & Upjohn Company, priority 1998, dated 1999).
In brackets after ≈: the same amount, converted by molar mass.

Legend:
Type in all cases: cell-based
[1] = system: S. pneumoniae UC ® 9912; test: In vitro minimum inhibitory concentration (MIC) by agar dilution, gram-positive bacteria (Table 1); details: Streptococcus pneumoniae, UC9912
From the text: (§1) The oxazolidinone antibacterial agents of this invention have useful activity against a variety of microorganisms. The in vitro activity of compounds of this invention can be assessed by standard testing procedures such as the determination of minimum inhibitory concentration (MIC) by agar dilution as described in "Methods for Dilution Antimicrobial Susceptibility Tests for Bacteria That Grow Aerobically" (MFT) published January 1983 by the National Committee for Clinical Laboratory Standards, 771 East Lancaster Avenue, Villanova, Pa. 19084, USA. The activity of selected compounds of this invention against Staphylococcus aureus and Streptococcus pneumoniae are shown in Table 1.

[2] = system: S. Aureus UC ® 9213; test: as above; details: Staphylococcus aureus, UC9213
From the text: as §1

[3] = system: HI 30063; test: MIC for a gram negative bacterial strain (Table 2); details: gram negative bacterial strain HI 30063

MIC [1] | MIC [2] | MIC [3] | Compound
< 0.125 µg/mL | 0.5 µg/mL (≈ 1.38 µM) | 2 µg/mL (≈ 5.53 µM) | CC(=O)NC[C@H]1CN(c2ccc(-c3nnc(C#N)s3)c(F)c2)C(=O)O1 [Example 1, (S)-N-[[3-[4-(5-Cyano-1,3,4-thiadiazol-2-yl)-3-fluorophenyl]-2-oxo-5-oxazolidinyl]methyl]acetamide]
< 0.125 µg/mL | 1 µg/mL (≈ 2.85 µM) | 2 µg/mL (≈ 5.71 µM) | CC(=O)NC[C@H]1CN(c2ccc(-c3nnc(C)s3)c(F)c2)C(=O)O1 [Example 3, (S)-N-[[3-[3-Fluoro-4-(5-methyl-1,3,4-thiadiazol-2-yl)phenyl]-2-oxo-5-oxazolidinyl]methyl]acetamide]
0.25 µg/mL (≈ 0.686 µM) | 1 µg/mL (≈ 2.74 µM) | 4 µg/mL (≈ 11 µM) | CCc1nnc(-c2ccc(N3C[C@H](CNC(C)=O)OC3=O)cc2F)s1 [Example 4, (S)-N-[[3-[4-(5-Ethyl-1,3,4-thiadiazol-2-yl)-3-fluorophenyl]-2-oxo-5-oxazolidinyl]methyl]acetamide]
< 0.125 µg/mL | 8 µg/mL (≈ 21.9 µM) | 2 µg/mL (≈ 5.47 µM) | CC(=O)NC[C@H]1CN(c2ccc(-c3nnc(CN)s3)c(F)c2)C(=O)O1 [Example 6, (S)-N-[[3-[4-[5-(Aminomethyl)-1,3,4-thiadiazol-2-yl]-3-fluorophenyl]-2-oxo-5-oxazolidinyl]methyl]acetamide]
< 0.125 µg/mL | 4 µg/mL (≈ 9.02 µM) | 2 µg/mL (≈ 4.51 µM) | CC(=O)NC[C@H]1CN(c2ccc(-c3nnc(CNS(C)(=O)=O)s3)c(F)c2)C(=O)O1 [Example 7, (S)-N-[[3-[3-Fluoro-4-[5-[[(methylsulfonyl)amino]methyl]-1,3,4-thiadiazol-2-yl]phenyl]-2-oxo-5-oxazolidinyl]methyl]acetamide]
0.25 µg/mL (≈ 0.679 µM) | 1 µg/mL (≈ 2.71 µM) | 4 µg/mL (≈ 10.9 µM) | CC(=O)NC[C@H]1CN(c2ccc(-c3nnc(CF)s3)c(F)c2)C(=O)O1 [Example 8, (S)-N-[[3-[3-Fluoro-4-(5-fluoromethyl-1,3,4-thiadiazol-2-yl)phenyl]-2-oxo-5-oxazolidinyl]methyl]acetamide]
0.25 µg/mL (≈ 0.743 µM) | 1 µg/mL (≈ 2.97 µM) | 4 µg/mL (≈ 11.9 µM) | CC(=O)NC[C@H]1CN(c2ccc(-c3nncs3)c(F)c2)C(=O)O1 [Example 9, (S)-N-[[3-[3-Fluoro-4-(1,3,4-thiadiazol-2-yl)phenyl]-2-oxo-5-oxazolidinyl]methyl]acetamide]
< 0.125 µg/mL | 1 µg/mL (≈ 2.73 µM) | 4 µg/mL (≈ 10.9 µM) | CC(=O)NC[C@H]1CN(c2ccc(-c3nnc(CO)s3)c(F)c2)C(=O)O1 [Example 11, (S)-N-[[3-[3-Fluoro-4-(5-hydroxymethyl-1,3,4-thiadiazol-2-yl)phenyl]-2-oxo-5-oxazolidinyl]methyl]acetamide]
0.25 µg/mL (≈ 0.666 µM) | 2 µg/mL (≈ 5.33 µM) | 4 µg/mL (≈ 10.7 µM) | CC(=O)NC[C@H]1CN(c2ccc(-c3nnc(CC#N)s3)c(F)c2)C(=O)O1 [Example 13, (S)-N-[[3-[4-[5-(Cyanomethyl)-1,3,4-thiadiazol-2-yl]-3-fluorophenyl]-2-oxo-5-oxazolidinyl]methyl]acetamide]
< 0.125 µg/mL | 4 µg/mL (≈ 10.2 µM) | 4 µg/mL (≈ 10.2 µM) | CC(=O)NC[C@H]1CN(c2ccc(-c3nnc(CC(N)=O)s3)c(F)c2)C(=O)O1 [Example 14, (S)-5-[4-[5-[(Acetylamino)methyl]-2-oxo-3-oxazolidinyl]-2-fluorophenyl]-1,3,4-thiadiazole-2-acetamide]
< 0.125 µg/mL | 1 µg/mL (≈ 2.46 µM) | 4 µg/mL (≈ 9.84 µM) | CC(=O)CCc1nnc(-c2ccc(N3C[C@H](CNC(C)=O)OC3=O)cc2F)s1 [Example 16, (S)-N-[[3-[3-Fluoro-4-[5-(3-oxobutyl)-1,3,4-thiadiazol-2-yl]phenyl]-2-oxo-5-oxazolidinyl]methyl]acetamide]
< 0.125 µg/mL | 0.5 µg/mL (≈ 1.28 µM) | 2 µg/mL (≈ 5.14 µM) | CC(=O)NC[C@H]1CN(c2ccc(-c3nnc(CCC#N)s3)c(F)c2)C(=O)O1 [Example 20, (S)-N-[[3-[4-[5-(2-Cyanoethyl)-1,3,4-thiadiazol-2-yl]-3-fluorophenyl]-2-oxo-5-oxazolidinyl]methyl]acetamide]
0.25 µg/mL (≈ 0.586 µM) | 4 µg/mL (≈ 9.38 µM) | 4 µg/mL (≈ 9.38 µM) | CC(=O)NC[C@H]1CN(c2ccc(-c3nnc(CC[S+](C)[O-])s3)c(F)c2)C(=O)O1 (stereo partly drawn) [Example 24, (S)-N-[[3-[3-Fluoro-4-[5-[2-(methylsulfinyl)ethyl]-1,3,4-thiadiazol-2-yl]phenyl]-2-oxo-5-oxazolidinyl]methyl]acetamide]
< 0.125 µg/mL | 2 µg/mL (≈ 5.26 µM) | 2 µg/mL (≈ 5.26 µM) | CC(=O)NC[C@H]1CN(c2ccc(-c3nnc(CCO)s3)c(F)c2)C(=O)O1 [Example 26, (S)-N-[[3-[3-Fluoro-4-[5-(2-hydroxyethyl)-1,3,4-thiadiazol-2-yl]phenyl]-2-oxo-5-oxazolidinyl]methyl]acetamide]
0.25 µg/mL (≈ 0.71 µM) | 1 µg/mL (≈ 2.84 µM) | 4 µg/mL (≈ 11.4 µM) | CC(=O)NC[C@H]1CN(c2ccc(-c3n[nH]c(=O)s3)c(F)c2)C(=O)O1 [Example 29, (S)-N-[[3-[4-(4,5-Dihydro-5-oxo-1,3,4-thiadiazol-2-yl)-3-fluorophenyl]-2-oxo-5-oxazolidinyl]methyl]acetamide]
< 0.125 µg/mL | 0.5 µg/mL (≈ 1.31 µM) | 4 µg/mL (≈ 10.5 µM) | CSc1nnc(-c2ccc(N3C[C@H](CNC(C)=O)OC3=O)cc2F)s1 [Example 31, (S)-N-[[3-[3-Fluoro-4-[5-(methylthio)-1,3,4-thiadiazol-2-yl]phenyl]-2-oxo-5-oxazolidinyl]methyl]acetamide]
< 0.125 µg/mL | 1 µg/mL (≈ 2.74 µM) | 4 µg/mL (≈ 11 µM) | CCC(=O)NC[C@H]1CN(c2ccc(-c3nnc(C)s3)c(F)c2)C(=O)O1 [Example 32, (S)-N-[[3-[3-Fluoro-4-(5-methyl-1,3,4-thiadiazol-2-yl)phenyl]-2-oxo-5-oxazolidinyl]methyl]propanamide]
0.25 µg/mL (≈ 0.627 µM) | 2 µg/mL (≈ 5.02 µM) | 4 µg/mL (≈ 10 µM) | CC(=O)NC[C@H]1CN(c2ccc(-c3nnc([S+](C)[O-])s3)c(F)c2)C(=O)O1 (stereo partly drawn) [Example 47, (5S)-N-[[3-[3-Fluoro-4-[5-(methylsulfinyl)-1,3,4-thiadiazol-2-yl]phenyl]-2-oxo-5-oxazolidinyl]methyl]acetamide]
0.25 µg/mL (≈ 0.574 µM) | 8 µg/mL (≈ 18.4 µM) | – | CC(=O)NCCCc1nnc(-c2ccc(N3C[C@H](CNC(C)=O)OC3=O)cc2F)s1 [Example 58, (S)-N-[3-[5-[4-[5-[(Acetylamino)methyl]-2-oxo-3-oxazolidinyl]-2-fluorophenyl]-1,3,4-thiadiazol-2-yl]propyl]acetamide]
0.5 µg/mL (≈ 1.32 µM) | 2 µg/mL (≈ 5.29 µM) | – | CC(=O)NC[C@H]1CN(c2ccc(-c3nnc(C(C)=O)s3)c(F)c2)C(=O)O1 [Example 59, (S)-N-[[3-[4-(5-Acetyl-1,3,4-thiadiazol-2-yl)-3-fluorophenyl]-2-oxo-5-oxazolidinyl]methyl]acetamide]
0.5 µg/mL (≈ 1.21 µM) | 2 µg/mL (≈ 4.84 µM) | – | CC(=O)NC[C@H]1CN(c2ccc(-c3nnc(CCCCl)s3)c(F)c2)C(=O)O1 [Example 60, (S)-N-[[3-[4-[5-(3-Chloropropyl)-1,3,4-thiadiazol-2-yl]-3-fluorophenyl]-2-oxo-5-oxazolidinyl]methyl]acetamide]
0.5 µg/mL (≈ 1.21 µM) | 2 µg/mL (≈ 4.83 µM) | – | CC(=O)NC[C@H]1CN(c2ccc(-c3nnc(S(C)(=O)=O)s3)c(F)c2)C(=O)O1 [Example 62, (S)-N-[[3-[3-Fluoro-4-[5-(methylsulfonyl)-1,3,4-thiadiazol-2-yl]phenyl]-2-oxo-5-oxazolidinyl]methyl]acetamide]
2 µg/mL (≈ 4.59 µM) | 8 µg/mL (≈ 18.4 µM) | – | CON=C(C)CCc1nnc(-c2ccc(N3C[C@H](CNC(C)=O)OC3=O)cc2F)s1 [Example 65, (S)-N-[[3-[3-Fluoro-4-[5-[3-(methoxyimino)butyl]-1,3,4-thiadiazol-2-yl]phenyl]-2-oxo-5-oxazolidinyl]methyl]acetamide]
< 0.5 µg/mL | 16 µg/mL (≈ 34.4 µM) | – | CC(=O)NC[C@H]1CN(c2ccc(-c3nnc(CNC(=O)COC(C)=O)s3)c(F)c2)C(=O)O1 [Example 66]
< 0.5 µg/mL | 16 µg/mL (≈ 37.8 µM) | – | CC(=O)NC[C@H]1CN(c2ccc(-c3nnc(CNC(=O)CO)s3)c(F)c2)C(=O)O1 [Example 67]
2 µg/mL (≈ 4.43 µM) | 8 µg/mL (≈ 17.7 µM) | – | CC(=O)NC[C@H]1CN(c2ccc(-c3nnc(NC(=O)COC(C)=O)s3)c(F)c2)C(=O)O1 [Example 68, (S)-N-[5-[4-[5-[(Acetylamino)methyl]-2-oxo-3-oxazolidinyl]-2-fluorophenyl]-1,3,4-thiadiazol-2-yl]-2-(acetyloxy)acetamide]
< 0.5 µg/mL | 4 µg/mL (≈ 9.34 µM) | – | CC(=O)NC[C@H]1CN(c2ccc(-c3nnc(CS(C)(=O)=O)s3)c(F)c2)C(=O)O1 [Example 69, (S)-N-[[3-[3-Fluoro-4-[5-[(methylsulfonyl)methyl]-1,3,4-thiadiazol-2-yl]phenyl]-2-oxo-5-oxazolidinyl]methyl]acetamide]
0.25 µg/mL (≈ 0.612 µM) | 4 µg/mL (≈ 9.79 µM) | – | CCC(=O)NC[C@H]1CN(c2ccc(-c3nnc(CCOC)s3)c(F)c2)C(=O)O1 [Example 72, (S)-N-[[3-[3-Fluoro-4-[5-(2-methoxyethyl)-1,3,4-thiadiazol-2-yl]phenyl]-2-oxo-5-oxazolidinyl]methyl]propanamide]
< 0.5 µg/mL | 2 µg/mL (≈ 5.07 µM) | – | COCCc1nnc(-c2ccc(N3C[C@H](CNC(C)=O)OC3=O)cc2F)s1 [Example 73, (S)-N-[[3-[3-Fluoro-4-[5-(2-methoxyethyl)-1,3,4-thiadiazol-2-yl]phenyl]-2-oxo-5-oxazolidinyl]methyl]acetamide]

Compound | MIC [1] | MIC [2] | MIC [3]
CC(=O)NC[C@H]1CN(c2ccc(-c3nnc(COC(C)=O)s3)c(F)c2)C(=O)O1 [Example 10, (S)-N-[[3-[4-(5-Acetoxymethyl-1,3,4-thiadiazol-2-yl)-3-fluorophenyl]-2-oxo-5-oxazolidinyl]methyl]acetamide] | < 0.125 µg/mL | 1 µg/mL (≈ 2.45 µM) | 4 µg/mL (≈ 9.79 µM)
